Assay results published in ChEMBL document CHEMBL4261496, “Targeting quinolone- and aminocoumarin-resistant bacteria with new gyramide analogs that inhibit DNA gyrase” (Medchemcomm, 2017).
≈ marks a conversion by molar mass, not a printed value. Calls of active or inactive are those of the source. The rule behind the calls is not given here.

Columns and labels:
[1] = Ratio of MIC for Escherichia coli BW25113 to MIC for Escherichia coli JW5503; assay type: functional
Escherichia coli [2] = assay: Ratio of MIC for gyramide-resistant Escherichia coli JW5503 harboring GyrA Ser97Pro mutant to MIC for Escherichia coli JW5503; assay type: functional
Enterococcus faecalis = assay: Antibacterial activity against Enterococcus faecalis after 16 to 18 hrs by broth microdilution method; assay type: functional
Klebsiella pneumoniae = assay: Antibacterial activity against Klebsiella pneumoniae after 16 to 18 hrs by broth microdilution method; assay type: functional
Bacillus cereus = assay: Antibacterial activity against Bacillus cereus after 16 to 18 hrs by broth microdilution method; assay type: functional
Escherichia coli [3] = assay: Antibacterial activity against gyramide-resistant Escherichia coli JW5503 harboring GyrA Pro35Thr mutant after 16 to 18 hrs by broth microdilution method; assay type: functional
Escherichia coli [4] = assay: Ratio of MIC for ciprofloxacin-resistant Escherichia coli JW5503 harboring GyrA Asp87Gly mutant to MIC for Escherichia coli JW5503; assay type: functional
Pseudomonas aeruginosa = assay: Antibacterial activity against Pseudomonas aeruginosa after 16 to 18 hrs by broth microdilution method; assay type: functional
Shigella flexneri = assay: Antibacterial activity against Shigella flexneri after 16 to 18 hrs by broth microdilution method; assay type: functional
Escherichia coli [5] = assay: Antibacterial activity against gyramide-resistant Escherichia coli JW5503 harboring GyrB Thr508Met mutant after 16 to 18 hrs by broth microdilution method; assay type: functional
Enterococcus faecium = assay: Antibacterial activity against Enterococcus faecium after 16 to 18 hrs by broth microdilution method; assay type: functional
Streptococcus agalactiae = assay: Antibacterial activity against Streptococcus agalactiae after 16 to 18 hrs by broth microdilution method; assay type: functional
Escherichia coli [6] = assay: Antibacterial activity against ciprofloxacin-resistant Escherichia coli JW5503 harboring GyrA Asp87Gly mutant after 16 to 18 hrs by broth microdilution method; assay type: functional
Escherichia coli [7] = assay: Ratio of MIC for ciprofloxacin-resistant Escherichia coli JW5503 harboring GyrA Asp87Tyr mutant to MIC for Escherichia coli JW5503; assay type: functional
Escherichia coli [8] = assay: Ratio of MIC for gyramide-resistant Escherichia coli JW5503 harboring GyrA Pro35Thr mutant to MIC for Escherichia coli JW5503; assay type: functional
[9] = tested on: Staphylococcus saprophyticus; assay: Antibacterial activity against Staphylococcus saprophyticus clinical isolate after 16 to 18 hrs by broth microdilution method; assay type: functional
Escherichia coli [10] = assay: Ratio of MIC for novobiocin-resistant Escherichia coli CC5 harboring GyrB Arg136His mutant to MIC for Escherichia coli HB101; assay type: functional
Staphylococcus aureus = assay: Antibacterial activity against Staphylococcus aureus subsp. aureus clinical isolate after 16 to 18 hrs by broth microdilution method; assay type: functional
[11] = target: DNA gyrase (Escherichia coli) (UniProt P0AES6+P0AES4); assay: Inhibition of Escherichia coli DNA gyrase ATPase activity up to 100 uM using DNA as substrate after 60 mins; assay type: protein-complex assay
Escherichia coli [12] = assay: Ratio of MIC for ciprofloxacin-resistant Escherichia coli JW5503 harboring GyrA Ser83Leu mutant to MIC for Escherichia coli JW5503; assay type: functional
Edwardsiella tarda = assay: Antibacterial activity against Edwardsiella tarda clinical isolate after 16 to 18 hrs by broth microdilution method; assay type: functional
Streptococcus pyogenes = assay: Antibacterial activity against Streptococcus pyogenes after 16 to 18 hrs by broth microdilution method; assay type: functional
Escherichia coli [13] = assay: Ratio of MIC for gyramide-resistant Escherichia coli JW5503 harboring GyrB Ser464Phe mutant to MIC for Escherichia coli JW5503; assay type: functional
Escherichia coli [14] = assay: Ratio of MIC for novobiocin-resistant Escherichia coli CC7 harboring GyrB Arg136Ser mutant to MIC for Escherichia coli HB101; assay type: functional
Escherichia coli [15] = assay: Antibacterial activity against Escherichia coli BW25113 after 16 to 18 hrs by broth microdilution method; assay type: functional
Bacillus subtilis = assay: Antibacterial activity against Bacillus subtilis after 16 to 18 hrs by broth microdilution method; assay type: functional
DNA gyrase = DNA gyrase (Escherichia coli, UniProt P0AES4+P0AES6); assay: Inhibition of Escherichia coli DNA gyrase assessed as inhibition of pUC19 supercoiling after 30 mins by agarose gel electrophoresis; assay type: protein-complex assay
Morganella morganii = assay: Antibacterial activity against Morganella morganii clinical isolate after 16 to 18 hrs by broth microdilution method; assay type: functional
Escherichia coli [16] = assay: Antibacterial activity against ciprofloxacin-resistant Escherichia coli JW5503 harboring GyrA Asp87Tyr mutant after 16 to 18 hrs by broth microdilution method; assay type: functional
Escherichia coli [17] = assay: Ratio of MIC for novobiocin-resistant Escherichia coli LE316 harboring GyrB Arg136Val mutant to MIC for Escherichia coli HB101; assay type: functional
Escherichia coli [18] = assay: Antibacterial activity against Escherichia coli UPEC after 16 to 18 hrs by broth microdilution method; assay type: functional
Escherichia coli [19] = assay: Antibacterial activity against ciprofloxacin-resistant Escherichia coli JW5503 harboring GyrA Ser83Leu mutant after 16 to 18 hrs by broth microdilution method; assay type: functional
Escherichia coli [20] = assay: Antibacterial activity against Escherichia coli MC4100 after 16 to 18 hrs by broth microdilution method; assay type: functional
Escherichia coli [21] = assay: Antibacterial activity against Escherichia coli BAS849 after 16 to 18 hrs by broth microdilution method; assay type: functional
Escherichia coli [22] = assay: Ratio of MIC for gyramide-resistant Escherichia coli JW5503 harboring GyrA His45Tyr mutant to MIC for Escherichia coli JW5503; assay type: functional
Escherichia coli [23] = assay: Ratio of MIC for gyramide-resistant Escherichia coli JW5503 harboring GyrA Phe96Leu mutant to MIC for Escherichia coli JW5503; assay type: functional
Escherichia coli [24] = assay: Antibacterial activity against ciprofloxacin-resistant Escherichia coli JW5503 harboring GyrB Ser464Phe mutant after 16 to 18 hrs by broth microdilution method; assay type: functional
Acinetobacter baumannii = assay: Antibacterial activity against Acinetobacter baumannii clinical isolate after 16 to 18 hrs by broth microdilution method; assay type: functional
Escherichia coli [25] = assay: Ratio of MIC for ciprofloxacin-resistant Escherichia coli JW5503 harboring GyrB Ser464Phe mutant to MIC for Escherichia coli JW5503; assay type: functional
Escherichia coli [26] = assay: Antibacterial activity against gyramide-resistant Escherichia coli JW5503 harboring GyrA His45Tyr mutant after 16 to 18 hrs by broth microdilution method; assay type: functional
Klebsiella aerogenes = assay: Antibacterial activity against Enterobacter aerogenes clinical isolate after 16 to 18 hrs by broth microdilution method; assay type: functional
Escherichia coli [27] = assay: Antibacterial activity against gyramide-resistant Escherichia coli JW5503 harboring GyrA Phe96Leu mutant after 16 to 18 hrs by broth microdilution method; assay type: functional
[28] = tested on: Staphylococcus epidermidis; assay: Antibacterial activity against Staphylococcus epidermidis clinical isolate after 16 to 18 hrs by broth microdilution method; assay type: functional
Escherichia coli [29] = assay: Antibacterial activity against gyramide-resistant Escherichia coli JW5503 harboring GyrA Ser97Pro mutant after 16 to 18 hrs by broth microdilution method; assay type: functional
Escherichia coli [30] = assay: Antibacterial activity against novobiocin-resistant Escherichia coli LE316 harboring GyrB Arg136Val mutant after 16 to 18 hrs in presence of PAbetaN by broth microdilution method; assay type: functional
Escherichia coli [31] = assay: Antibacterial activity against Escherichia coli HB101 after 16 to 18 hrs by broth microdilution method; assay type: functional
Salmonella typhimurium = assay: Antibacterial activity against Salmonella enterica subsp. enterica serovar Typhimurium after 16 to 18 hrs by broth microdilution method; assay type: functional
Escherichia coli [32] = assay: Antibacterial activity against Escherichia coli HB101 after 16 to 18 hrs in presence of PAbetaN by broth microdilution method; assay type: functional

**Q.** Which Ratio [1] does the source give for `Cc1ccc(F)cc1S(=O)(=O)N[C@@H]1CCN(Cc2ccc(-c3ccccc3)cc2)C1` here?
**A.** > 1600

**Q.** With `Cc1ccc(C(F)(F)F)cc1S(=O)(=O)N[C@@H]1CCN(Cc2ccc(OC3CC3)cc2)C1` as the compound, how does the Ratio (Escherichia coli [2]) read?
**A.** 10 - 100

**Q.** What about the MIC (Enterococcus faecalis) of the same compound?
**A.** 16 µg/mL (≈ 35.2 µM)

**Q.** And the MIC (Klebsiella pneumoniae)?
**A.** > 16 µg/mL

**Q.** What about the MIC (Bacillus cereus) of the same compound?
**A.** 8 µg/mL (≈ 17.6 µM)

**Q.** And the MIC (Escherichia coli [3])?
**A.** 11 µg/mL (≈ 24.2 µM)

**Q.** What about the Ratio (Escherichia coli [4]) of the same compound?
**A.** 2 - 4

**Q.** What about the MIC (Pseudomonas aeruginosa) of the same compound?
**A.** > 16 µg/mL

**Q.** And the MIC (Shigella flexneri)?
**A.** 4 µg/mL (≈ 8.8 µM)

**Q.** What about the MIC (Escherichia coli [5]) of the same compound?
**A.** 5.5 µg/mL (≈ 12.1 µM)

**Q.** And the MIC (Enterococcus faecium)?
**A.** 8 µg/mL (≈ 17.6 µM)

**Q.** And the MIC (Streptococcus agalactiae)?
**A.** 8 µg/mL (≈ 17.6 µM)

**Q.** And the MIC (Escherichia coli [6])?
**A.** 0.8 µg/mL (≈ 1.76 µM)

**Q.** And the Ratio (Escherichia coli [7])?
**A.** 2 - 4

**Q.** What about the Ratio (Escherichia coli [8]) of the same compound?
**A.** 10 - 100

**Q.** What about the MIC [9] of the same compound?
**A.** 8 µg/mL (≈ 17.6 µM)

**Q.** What about the Ratio (Escherichia coli [10]) of the same compound?
**A.** 2 - 4

**Q.** What about the MIC (Staphylococcus aureus) of the same compound?
**A.** 8 µg/mL (≈ 17.6 µM)

**Q.** What about the inhibition [11] of the same compound?
**A.** inactive

**Q.** What about the Ratio (Escherichia coli [12]) of the same compound?
**A.** 2 - 4

**Q.** What about the MIC (Edwardsiella tarda) of the same compound?
**A.** 8 µg/mL (≈ 17.6 µM)

**Q.** What about the MIC (Streptococcus pyogenes) of the same compound?
**A.** 4 µg/mL (≈ 8.8 µM)

**Q.** What about the Ratio (Escherichia coli [13]) of the same compound?
**A.** 10 - 100

**Q.** What about the Ratio (Escherichia coli [14]) of the same compound?
**A.** 2 - 4

**Q.** And the MIC (Escherichia coli [15])?
**A.** 8 µg/mL (≈ 17.6 µM)

**Q.** What about the MIC (Bacillus subtilis) of the same compound?
**A.** 8 µg/mL (≈ 17.6 µM)

**Q.** And the IC50 (DNA gyrase)?
**A.** 170 nM

**Q.** And the MIC (Morganella morganii)?
**A.** > 16 µg/mL

**Q.** What about the MIC (Escherichia coli [16]) of the same compound?
**A.** 0.2 µg/mL (≈ 0.44 µM)

**Q.** What about the Ratio (Escherichia coli [17]) of the same compound?
**A.** 2 - 4

**Q.** What about the MIC (Escherichia coli [18]) of the same compound?
**A.** > 16 µg/mL

**Q.** And the MIC (Escherichia coli [19])?
**A.** 0.4 µg/mL (≈ 0.88 µM)

**Q.** What about the MIC (Escherichia coli [20]) of the same compound?
**A.** 16 µg/mL (≈ 35.2 µM)

**Q.** And the MIC (Escherichia coli [21])?
**A.** 1 µg/mL (≈ 2.2 µM)

**Q.** What about the Ratio (Escherichia coli [22]) of the same compound?
**A.** 10 - 100

**Q.** What about the Ratio (Escherichia coli [23]) of the same compound?
**A.** 10 - 100

**Q.** And the MIC (Escherichia coli [24])?
**A.** 1.6 µg/mL (≈ 3.52 µM)

**Q.** And the MIC (Acinetobacter baumannii)?
**A.** > 16 µg/mL

**Q.** What about the Ratio (Escherichia coli [25]) of the same compound?
**A.** 2 - 4

**Q.** And the MIC (Escherichia coli [26])?
**A.** 22 µg/mL (≈ 48.4 µM)

**Q.** What about the MIC (Klebsiella aerogenes) of the same compound?
**A.** > 16 µg/mL

**Q.** What about the MIC (Escherichia coli [27]) of the same compound?
**A.** 11 µg/mL (≈ 24.2 µM)

**Q.** And the MIC [28]?
**A.** 8 µg/mL (≈ 17.6 µM)

**Q.** What about the MIC (Escherichia coli [29]) of the same compound?
**A.** 22 µg/mL (≈ 48.4 µM)

**Q.** And the MIC (Escherichia coli [30])?
**A.** 0.2 µg/mL

**Q.** And the MIC (Escherichia coli [31])?
**A.** 4 µg/mL (≈ 8.8 µM)

**Q.** What about the MIC (Salmonella typhimurium) of the same compound?
**A.** 4 µg/mL (≈ 8.8 µM)

**Q.** What about the MIC (Escherichia coli [32]) of the same compound?
**A.** 0.1 µg/mL

**Q.** What about the Ratio [1] of the same compound?
**A.** 20
